Assay results as given in patent US11478451B1, “Macrocyclic chlorine substituted indole derivatives” (Bayer Aktiengesellschaft, priority 2017, dated 2022).
Where a name gives a salt, the structure may show the parent alone. Read-outs that look alike come from different tables or passages of the source.

Legend:
SUDHL5 cells [1] = assay: Induction of caspase-3/7 activity (Caspase-Glo 3/7), SUDHL5; format: cell-based; conditions: EC50, median, SUDHL5, 3 h treatment
In short: (§1)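 Read-out: Caspase-Glo 3/7 signal, background-corrected against medium-only wells, taken after cells had been incubated with compounds for 3 h at 37 °C.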

SNU-389 cells = assay: Antiproliferation assay (CellTiter-Glo, 72 h), SNU-389; format: cell-based; conditions: 72 h; read-out: Antiproli SNU-389 [M] median
Protocol: (§2) Assessment of the Anti-Proliferative Effect of Compounds in Different Cell Lines
(§3) The impact of compounds on the proliferation of different cell lines was assessed using the CellTiter-Glo® Luminescent Cell Viability reagent from Promega (G7573).
(§4) In parallel, cells were plated in a reference (day 0) plate for time zero determination.
(§5) Rim wells were excluded. The cells were incubated for 72 h hours in a humidified incubator at 37° C. The day 0 plate was measured by adding 30 μL/well of CTG solution (CellTiter-Glo® Luminescent Cell Viability reagent, Promega G7573) to time zero wells in the reference plate followed by a 10 minutes incubation and luminescence reading at 0.1 ms. using the PHERAstar FS microplate reader (BMG Labtech).
(§6) After 72 h incubation, the treated plates were measured in the same way as the day 0 plate mentioned above.

AMO-1 cells = assay: Antiproliferation assay (CellTiter-Glo, 72 h), AMO-1; format: cell-based; conditions: IC50, median, AMO-1, 72 h, read-out: Antiproli AMO-1 [M] median
In short: (§7)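 Treated cells sat 72 h in a humidified 37 °C incubator, outer wells unused, before CellTiter-Glo reagent and a 10 min wait preceded luminescence reading; identical measurement of a parallel day 0 plate defined time zero.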

SUDHL5 cells [2] = assay: Antiproliferation assay (CellTiter-Glo, 72 h), SUDHL5; format: cell-based; conditions: IC50, median, SUDHL5, 72 h, read-out: Antiproli SUDHL5 [M] (median)
In short: as §7

SUDHL10 cells [3] = assay: Induction of cytotoxicity (CellTiter-Glo, 5 h), SUDHL10; conditions: SUDHL10, 5 h
SUDHL10 cells [4] = assay: Induction of caspase-3/7 activity (Caspase-Glo 3/7), SUDHL10; format: cell-based; conditions: Homo sapiens, SU-DHL10, 3 h, EC50, median; SUDHL10, 3 h treatment
In short: as §1

SUDHL5 cells [5] = assay: Induction of cytotoxicity (CellTiter-Glo, 5 h), SUDHL5; conditions: SUDHL5, 5 h
DMS-114 cells = assay: Antiproliferation assay (CellTiter-Glo, 72 h), DMS-114; format: cell-based; conditions: Homo sapiens, DMS-114, 72 h; read-out: Antiproli DMS-114 [M] median
Protocol: as §2, §3, §4, §5, §6

HMC-1-8 cells = assay: Antiproliferation assay (CellTiter-Glo, 72 h), HMC-1-8; format: cell-based; conditions: 72 h, IC50, median; HMC-1-8, 72 h; read-out: Antiproli HMC-1-8 [M] median
In short: as §7

[6] = NaH, DMF, 40.0 °C, 3 steps
[7] = Homo sapiens, SU-DHL10, 5 h, read-out: Cytotox SUDHL10 [M] (median), IC50, median
[8] = read-out: Cytotox SUDHL5 [M] (median), IC50, median
[9] = Homo sapiens, SU-DHL-5, 5 h, read-out: Cytotox SUDHL5 [M] (median), IC50, median

Structure (SMILES) | EC50 (SUDHL5 cells [1]) [nM] | IC50 (SNU-389 cells) [M] | IC50 (AMO-1 cells; Homo sapiens, AMO1, 72 h) [M] | IC50 (SUDHL5 cells [2]) [M] | IC50 (SUDHL10 cells [3]; [7]) [M] | EC50 (SUDHL10 cells [4]) [nM] | IC50 (SUDHL5 cells [5]; [8]) [M] | IC50 (DMS-114 cells) [M] | EC50 (SUDHL5 cells [1]; Homo sapiens, SU-DHL-5, 3 h) [nM] | IC50 (HMC-1-8 cells) [M] | IC50 (SUDHL5 cells [2]; Homo sapiens, SU-DHL-5, 72 h) [M] | IC50 (AMO-1 cells) [M] | IC50 (SUDHL10 cells [3]; read-out: Cytotox SUDHL10 [M] (median), IC50, median) | IC50 (SUDHL5 cells [5]; [9]) [M] | ring closure, yield of all isomers ([6]; from CCOC(=O)c1[nH]c2c(-c3c(CCCOCCO)nn(C)c3CC)c(Cl)ccc2c1CCCOc1cccc2cc(F)ccc12, amine bond, 47.5 mM) [%] | ring closure, yield of all isomers ([6]; from CCOC(=O)c1[nH]c2c(-c3c(CC)nn(C)c3CCCOCCO)c(Cl)ccc2c1CCCOc1cccc2cc(F)ccc12, amine bond, 55.64 mM) [%]
Cc1c2c(nn1C)CN(CC(F)(F)F)CCCCn1c(C(=O)O)c(CCCOc3cccc4cc(F)ccc34)c3ccc(Cl)c-2c31 (single isomer, unassigned; enantiomer 1) [Example 59, 4-chloro-7-{3-[(6-fluoronaphthalen-1-yl)oxy]propyl}-2,3-dimethyl-14-(2,2,2-trifluoroethyl)-10,11,12,13,14,15-hexahydro-2H-pyrazolo[3′,4′:8,9][1,6]diazacycloundecino[10,11,1-hi]indole-8-carboxylic acid—Enantiomer 1] | 350 | 3.79e-06 | 1.5e-06 | 1.1e-06 | 1.2e-06 | 1000 | 8e-07 | 3.21e-06 | – | – | – | – | – | – | – | –
Cc1c2c(nn1C)COCCn1c(C(=O)O)c(CCCOc3cccc4ccccc34)c3ccc(Cl)c-2c31 (racemic) [Example 87, (rac)-11-chloro-9,10-dimethyl-1-{3-[(naphthalen-1-yl)oxy]propyl}-4,5,7,9-tetrahydropyrazolo[4′,3′:7,8][1,4]oxazonino[6,5,4-hi]indole-2-carboxylic acid] | – | 1.52e-06 | 3.8e-07 | – | 2.6e-07 | 210 | – | 1.32e-06 | 170 | 4.7e-06 | 5.5e-07 | – | – | – | – | –
CCc1c2c(nn1C)CN(C)CCCCn1c(C(=O)O)c(CCCOc3cccc4cc(F)ccc34)c3ccc(Cl)c-2c31 (single isomer, unassigned; enantiomer 1) [Example 6, 4-chloro-3-ethyl-7-{3-[(6-fluoronaphthalen-1-yl)oxy]propyl}-2,14-dimethyl-10,11,12,13,14,15-hexahydro-2H-pyrazolo[3′,4′:8,9][1,6]diazacycloundecino[10,11,1-hi]indole-8-carboxylic acid (Enantiomer 1)] | – | 6.96e-07 | – | – | – | 220 | 1.5e-07 | 4.97e-07 | – | 3.4e-06 | – | 2.4e-07 | 3.6e-07 | – | – | –
CCc1c2c(nn1C)CCCOCCn1c(C(=O)O)c(CCCOc3cccc4cc(F)ccc34)c3ccc(Cl)c-2c31 (racemic) [Example 124, (rac)-4-chloro-3-ethyl-7-{3-[(6-fluoro-1-naphthyl)oxy]propyl}-2-methyl-2,10,11,13,14,15-hexahydropyrazolo[4′,3′:7,8][1,4]oxazacycloundecino[6,5,4-hi]indole-8-carboxylic acid] | – | – | 8.3e-07 | – | 2.4e-06 | 1800 | – | – | 950 | 7e-06 | 4.4e-06 | – | – | 1.1e-06 | 63.1 | –
CCc1c2c(nn1C)CN(CCC1CCOCC1)CCCCn1c(C(=O)O)c(CCCOc3cccc4cc(F)ccc34)c3ccc(Cl)c-2c31 (single isomer, unassigned; enantiomer 1) [Example 136, 4-chloro-3-ethyl-7-{3-[(6-fluoronaphthalen-1-yl)oxy]propyl}-2-methyl-14-[2-(oxan-4-yl)ethyl]-10,11,12,13,14,15-hexahydro-2H-pyrazolo[3′,4′:8,9][1,6]diazacycloundecino[10,11,1-hi]indole-8-carboxylic acid N-ethylethanamine salt (Enantiomer 1)] | – | 3.85e-07 | – | – | – | – | – | 2.35e-07 | – | 7.3e-07 | – | – | – | – | – | –
CCc1c2c(nn1C)COCCCCn1c(C(=O)O)c(CCCOc3cccc4cc(F)ccc34)c3ccc(Cl)c-2c31 (single isomer, unassigned; enantiomer 1) [Example 37, (+)-4-chloro-3-ethyl-7-{3-[(6-fluoronaphthalen-1-yl)oxy]propyl}-2-methyl-2,10,11,12,13,15-hexahydropyrazolo[4′,3′:9,10][1,6]oxazacycloundecino[8,7,6-hi]indole-8-carboxylic acid-N-ethylethanamine salt (Enantiomer 1)] | – | 1.05e-06 | 3.6e-07 | – | 4.3e-07 | 330 | – | 1.12e-06 | – | 1.6e-06 | – | – | – | – | – | –
CCc1nn(C)c2c1-c1c(Cl)ccc3c(CCCOc4cccc5cc(F)ccc45)c(C(=O)O)n(c13)CCCCN(C)C2 (single isomer, unassigned; enantiomer 2) [Example 41, 4-chloro-3-ethyl-7-{3-[(6-fluoronaphthalen-1-yl)oxy]propyl}-1,14-dimethyl-10,11,12,13,14,15-hexahydro-1H-pyrazolo[3′,4′:8,9][1,6]diazacycloundecino[10,11,1-hi]indole-8-carboxylic acid (Enantiomer 2)] | – | 5.56e-07 | – | 1.5e-07 | – | – | – | 3.65e-07 | – | 7e-07 | – | 5.4e-07 | – | – | – | –
CCc1c2c(nn1C)CN(C)CCCCn1c(C(=O)O)c(CCCOc3cccc4ccccc34)c3ccc(Cl)c-2c31 (single isomer, unassigned; enantiomer 1) [Example 23, 4-chloro-3-ethyl-2,14-dimethyl-7-[3-(naphthalen-1-yloxy)propyl]-10,11,12,13,14,15-hexahydro-2H-pyrazolo[3′,4′:8,9][1,6]diazacycloundecino[10,11,1-hi]indole-8-carboxylic acid (Enantiomer 1)] | – | 1.7e-06 | 6.1e-07 | – | – | 180 | – | 2.06e-06 | – | 5.2e-06 | – | – | – | – | – | –
CCc1nn(C)c2c1-c1c(Cl)ccc3c(CCCOc4cccc5cc(F)ccc45)c(C(=O)O)n(c13)CCOCCC2 [Example 125, (rac)-4-chloro-3-ethyl-7-{3-[(6-fluoro-1-naphthyl)oxy]propyl}-1-methyl-1,10,11,13,14,15-hexahydropyrazolo[4′,3′:7,8][1,4]oxazacycloundecino[6,5,4-hi]indole-8-carboxylic acid] | – | – | 1.9e-06 | – | 5.4e-06 | 4600 | – | – | 1400 | – | 7.9e-06 | – | – | 1.3e-06 | – | 76.1
CCc1c2c(nn1C)CN(CCOC)CCCCn1c(C(=O)O)c(CCCOc3cccc4cc(F)ccc34)c3ccc(Cl)c-2c31 (single isomer, unassigned; enantiomer 2) [Example 133, 4-chloro-3-ethyl-7-{3-[(6-fluoronaphthalen-1-yl)oxy]propyl}-14-(2-methoxyethyl)-2-methyl-10,11,12,13,14,15-hexahydro-2H-pyrazolo[3′,4′:8,9][1,6]diazacycloundecino[10,11,1-hi]indole-8-carboxylic acid N-ethylethanamine salt (Enantiomer 2)] | – | 4.97e-07 | – | – | – | – | – | 3.85e-07 | – | 1e-06 | – | – | – | – | – | –
CCc1nn(C)c2c1-c1c(Cl)ccc3c(CCCOc4cccc5cc(F)ccc45)c(C(=O)O)n(c13)CCCCN(C)C2 (racemic) [Example 39, (rac)-4-chloro-3-ethyl-7-{3-[(6-fluoronaphthalen-1-yl)oxy]propyl}-1,14-dimethyl-10,11,12,13,14,15-hexahydro-1H-pyrazolo[3′,4′:8,9][1,6]diazacycloundecino[10,11,1-hi]indole-8-carboxylic acid] | – | 1.09e-06 | 2.4e-07 | – | 2.4e-07 | 150 | – | 6.38e-07 | – | 3.3e-06 | – | – | – | 1.5e-07 | – | –
